Experimental data: patent publication US8471005B2 (Cephalon, Inc., priority 2008, dated 2013)
Like-named read-outs stand apart in the source and are kept apart here. One block for each compound: values may come before it.

What was measured:
ALK = molecular target: T1, ALK (Homo sapiens, UniProt Q9UM73); assay: ALK Kinase Assay (ELISA/TRF, PLC-γ substrate); format: biochemical; conditions: read-out: ALK Potency
T1 construct: host or cells: baculovirus expression system
In short: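 First, plates are coated with substrate (phospholipase C-γ, 10 μg/mL, TBS). Next, 30 ng/ml ALK initiates phosphorylation for 15 min at 37° C. Then Eu-N1 PT66 antibody is added for detection, and a nonlinear dose-response fit of percent inhibition yields IC50.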

JAK2 = molecular target: T2, JAK2 (Homo sapiens, UniProt O60674); assay: Recombinant Human JAK2 Kinase Assay (TRF); format: biochemical; conditions: read-out: JAK2 Potency
T2 construct: host or cells: baculovirus expression system
In short: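 Baculovirus-expressed JAK2 (15 ng/ml) phosphorylated a biotinylated 15-mer peptide captured on Neutravidin-coated plates, in 20 mM HEPES pH 7.2 with 0.2 μM ATP, 1 mM MnCl2, 0.1% BSA and 2.5% DMSO. Reaction ran 20 min at room temperature; phosphopeptide was detected by time-resolved fluorescence with Eu-N1-labelled PY100 antibody.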

[1] = ALK kinase inhibition, 1 μM ATP
[2] = JAK2 kinase inhibition, 0.2 μM ATP

T1 sequence (Q9UM73 19-1620): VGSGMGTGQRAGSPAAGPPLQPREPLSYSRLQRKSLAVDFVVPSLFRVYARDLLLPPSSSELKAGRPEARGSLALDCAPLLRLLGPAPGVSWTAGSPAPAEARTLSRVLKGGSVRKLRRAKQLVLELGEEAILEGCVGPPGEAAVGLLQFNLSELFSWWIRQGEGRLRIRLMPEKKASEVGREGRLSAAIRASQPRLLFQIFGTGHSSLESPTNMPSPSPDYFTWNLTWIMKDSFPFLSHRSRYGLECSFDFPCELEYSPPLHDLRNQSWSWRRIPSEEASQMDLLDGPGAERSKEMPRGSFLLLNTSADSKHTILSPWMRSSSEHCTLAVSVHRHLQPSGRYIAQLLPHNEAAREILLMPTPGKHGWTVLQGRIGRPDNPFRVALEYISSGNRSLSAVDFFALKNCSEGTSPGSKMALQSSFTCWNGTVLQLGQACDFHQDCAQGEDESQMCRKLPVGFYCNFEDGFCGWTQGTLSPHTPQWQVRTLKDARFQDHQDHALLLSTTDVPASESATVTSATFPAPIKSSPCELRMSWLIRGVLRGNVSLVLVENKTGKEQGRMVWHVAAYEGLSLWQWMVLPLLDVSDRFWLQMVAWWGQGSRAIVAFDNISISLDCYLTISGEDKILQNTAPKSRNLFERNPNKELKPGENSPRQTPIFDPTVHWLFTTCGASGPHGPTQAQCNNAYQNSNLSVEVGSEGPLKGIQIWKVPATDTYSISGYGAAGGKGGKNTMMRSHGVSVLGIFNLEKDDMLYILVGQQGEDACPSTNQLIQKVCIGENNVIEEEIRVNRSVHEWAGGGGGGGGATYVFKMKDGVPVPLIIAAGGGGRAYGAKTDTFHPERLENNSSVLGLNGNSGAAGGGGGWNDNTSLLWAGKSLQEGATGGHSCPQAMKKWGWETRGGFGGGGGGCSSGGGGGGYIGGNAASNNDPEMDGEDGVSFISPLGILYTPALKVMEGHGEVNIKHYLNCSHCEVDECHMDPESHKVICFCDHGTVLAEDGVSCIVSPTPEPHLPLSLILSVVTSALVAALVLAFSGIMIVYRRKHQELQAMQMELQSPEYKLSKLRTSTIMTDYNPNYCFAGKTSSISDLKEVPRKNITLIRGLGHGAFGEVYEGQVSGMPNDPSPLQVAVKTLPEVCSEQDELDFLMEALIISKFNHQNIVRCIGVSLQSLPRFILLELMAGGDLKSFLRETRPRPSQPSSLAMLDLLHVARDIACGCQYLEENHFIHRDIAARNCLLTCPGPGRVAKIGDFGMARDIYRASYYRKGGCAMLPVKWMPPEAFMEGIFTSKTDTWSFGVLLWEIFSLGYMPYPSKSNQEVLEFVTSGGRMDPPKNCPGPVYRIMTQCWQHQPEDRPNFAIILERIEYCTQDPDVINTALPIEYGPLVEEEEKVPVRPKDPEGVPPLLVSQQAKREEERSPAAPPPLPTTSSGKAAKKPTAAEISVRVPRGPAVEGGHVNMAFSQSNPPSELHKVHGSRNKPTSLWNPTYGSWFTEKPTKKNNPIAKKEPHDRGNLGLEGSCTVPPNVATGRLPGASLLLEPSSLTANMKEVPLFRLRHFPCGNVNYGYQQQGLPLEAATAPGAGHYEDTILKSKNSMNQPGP
T2 sequence (O60674 whole entry): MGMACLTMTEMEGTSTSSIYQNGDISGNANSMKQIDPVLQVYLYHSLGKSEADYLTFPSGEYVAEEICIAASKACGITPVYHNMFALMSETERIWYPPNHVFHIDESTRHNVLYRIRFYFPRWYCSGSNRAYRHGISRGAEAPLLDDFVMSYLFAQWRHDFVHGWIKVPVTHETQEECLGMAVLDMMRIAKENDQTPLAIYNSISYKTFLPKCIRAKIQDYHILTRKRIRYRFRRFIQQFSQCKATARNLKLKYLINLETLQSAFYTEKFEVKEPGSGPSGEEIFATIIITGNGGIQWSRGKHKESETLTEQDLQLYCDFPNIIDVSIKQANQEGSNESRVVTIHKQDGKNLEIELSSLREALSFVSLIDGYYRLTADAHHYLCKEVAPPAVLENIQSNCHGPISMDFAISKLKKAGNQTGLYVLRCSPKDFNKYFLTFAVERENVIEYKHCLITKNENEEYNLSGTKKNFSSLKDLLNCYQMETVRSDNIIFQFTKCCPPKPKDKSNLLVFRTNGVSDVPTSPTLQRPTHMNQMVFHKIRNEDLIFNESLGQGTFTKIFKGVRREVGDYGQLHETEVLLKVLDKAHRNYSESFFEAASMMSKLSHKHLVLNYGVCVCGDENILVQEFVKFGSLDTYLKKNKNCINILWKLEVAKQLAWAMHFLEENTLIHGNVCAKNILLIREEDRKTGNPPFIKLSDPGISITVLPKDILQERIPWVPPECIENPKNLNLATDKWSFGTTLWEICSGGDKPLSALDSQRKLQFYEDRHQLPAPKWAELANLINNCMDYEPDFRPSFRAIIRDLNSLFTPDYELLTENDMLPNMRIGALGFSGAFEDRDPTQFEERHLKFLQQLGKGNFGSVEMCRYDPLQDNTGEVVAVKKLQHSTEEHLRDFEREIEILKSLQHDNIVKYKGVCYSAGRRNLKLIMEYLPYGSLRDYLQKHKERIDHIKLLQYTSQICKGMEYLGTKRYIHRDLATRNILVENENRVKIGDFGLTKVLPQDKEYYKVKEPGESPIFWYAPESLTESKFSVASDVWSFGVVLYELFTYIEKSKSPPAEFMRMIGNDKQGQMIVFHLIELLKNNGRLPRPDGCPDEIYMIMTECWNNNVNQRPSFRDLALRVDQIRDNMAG

SMILES: COc1ccc(-c2ccc3cnc(Nc4ccc(C5(C#N)CCN(CC(N)=O)CC5)cc4)nn23)cn1 [Example 1545, 2-(4-Cyano-4-{4-[7-(6-methoxy-pyridin-3-yl)-pyrrolo[2,1-f][1,2,4]triazin-2-ylamino]-phenyl}-piperidin-1-yl)-acetamide]
IC50 (ALK; ALK Kinase Inhibition): 100 to 1000 nM
IC50 (JAK2; JAK2 Kinase Inhibition): < 100 nM

SMILES: COCCOc1ncc2ccc(-c3cccc(Cl)c3)n2n1 [Example 190, 7-(3-Chloro-phenyl)-2-(2-methoxy-ethoxy)-pyrrolo[2,1-f][1,2,4]triazine]
IC50 (ALK; ALK Kinase Inhibition): > 10000 nM
IC50 (JAK2; JAK2 Kinase Inhibition): < 100 nM

SMILES: COc1cc(C2CCN(CC(N)=O)CC2)ccc1Nc1ncc2ccc(-c3ccncc3OC)n2n1 [Example 857, 2-(4-{3-Methoxy-4-[7-(3-methoxy-pyridin-4-yl)-pyrrolo[2,1-f][1,2,4]triazin-2-ylamino]-phenyl}-piperidin-1-yl)-acetamide]
IC50 (ALK; [1]): < 100 nM
IC50 (JAK2; [2]): 100 to 1000 nM

SMILES: COc1ccc(-c2ccc3cnc(Nc4cccc(NC(=O)CN(C)C)c4)nn23)cn1 [Example 899, 2-Dimethylamino-N-{3-[7-(6-methoxy-pyridin-3-yl)-pyrrolo[2,1-f][1,2,4]triazin-2-ylamino]-phenyl}-acetamide]
IC50 (ALK; [1]): 100 to 1000 nM
IC50 (JAK2; [2]): < 100 nM

SMILES: COc1ccccc1-c1ccc2cnc(Nc3ccc(C4CCNCC4)nc3)nn12 [Example 1026, (1′,2′,3′,4′,5′,6′-Hexahydro-[2,4]bipyridinyl-5-yl)-[7-(2-methoxy-phenyl)-pyrrolo[2,1-f][1,2,4]triazin-2-yl]-amine]
IC50 (ALK; [1]): < 100 nM
IC50 (JAK2; [2]): < 100 nM

SMILES: Cc1nc2cc(Nc3ncc4ccc(-c5cccc(S(C)(=O)=O)c5)n4n3)ccc2o1 [Example 599, [7-(3-Methanesulfonyl-phenyl)-pyrrolo[2,1-f][1,2,4]triazin-2-yl]-(2-methyl-benzoxazol-5-yl)-amine]
IC50 (ALK; [1]): 1000 to 10000 nM
IC50 (JAK2; [2]): < 100 nM

SMILES: c1ccc(-c2ccc3cnc(NCCN4CCOCC4)nn23)cc1 [Example 28, (2-Morpholin-4-yl-ethyl)-(7-phenyl-pyrrolo[2,1-f][1,2,4]triazin-2-yl)-amine]
IC50 (ALK; ALK Kinase Inhibition): > 10000 nM
IC50 (JAK2; JAK2 Kinase Inhibition): 1000 to 10000 nM

SMILES: COc1ccccc1-c1ccc2cnc(Nc3cccc(N4CCN(CC(C)(C)O)CC4)c3)nn12 [Example 218, 1-(4-{3-[7-(2-Methoxy-phenyl)-pyrrolo[2,1-f][1,2,4]triazin-2-ylamino]-phenyl}-piperazin-1-yl)-2-methyl-propan-2-ol]
IC50 (ALK; ALK Kinase Inhibition): < 100 nM
IC50 (JAK2; JAK2 Kinase Inhibition): < 100 nM

SMILES: COc1cc(C2CCN(CC(=O)NC(CO)CO)CC2)ccc1Nc1ncc2ccc(-c3ccccc3OC)n2n1 [Example 1279, N-(2-Hydroxy-1-hydroxymethyl-ethyl)-2-(4-{3-methoxy-4-[7-(2-methoxy-phenyl)-pyrrolo[2,1-f][1,2,4]triazin-2-ylamino]-phenyl}-piperidin-1-yl)-acetamide]
IC50 (ALK; [1]): < 100 nM
IC50 (JAK2; [2]): 100 to 1000 nM

SMILES: COc1ccc(-c2ccc3cnc(Nc4ccc5nc(C(F)(F)F)[nH]c5c4)nn23)cn1 [Example 1308, [7-(6-Methoxy-pyridin-3-yl)-pyrrolo[2,1-f][1,2,4]triazin-2-yl]-(2-trifluoromethyl-3H-benzimidazol-5-yl)-amine]
IC50 (ALK; [1]): > 10000 nM
IC50 (JAK2; [2]): < 100 nM

SMILES: COc1ccccc1-c1ccc2cnc(Nc3cccc(C(=O)N4CCN(C)CC4)c3OC)nn12 [Example 1231, {2-Methoxy-3-[7-(2-methoxy-phenyl)-pyrrolo[2,1-f][1,2,4]triazin-2-ylamino]-phenyl}-(4-methyl-piperazin-1-yl)-methanone]
IC50 (ALK; [1]): 100 to 1000 nM
IC50 (JAK2; [2]): 1000 to 10000 nM

SMILES: COc1cc(N2CCC[C@H](CN3CCN(C)CC3)C2)ccc1Nc1ncc2ccc(-c3ccccc3N(C)S(C)(=O)=O)n2n1 [Example 465, N-[2-(2-{2-Methoxy-4-[(R)-3-(4-methyl-piperazin-1-ylmethyl)-piperidin-1-yl]-phenylamino}-pyrrolo[2,1-f][1,2,4]triazin-7-yl)-phenyl]-N-methyl-methanesulfonamide]
IC50 (ALK; ALK Kinase Inhibition): < 100 nM
IC50 (JAK2; JAK2 Kinase Inhibition): 100 to 1000 nM

SMILES: CCN1CCN(C(=O)c2ccc(Nc3ncc4c(-c5ccccc5OC)ccn4n3)cc2)CC1 [Example 723, (4-Ethyl-piperazin-1-yl)-{4-[5-(2-methoxy-phenyl)-pyrrolo[2,1-f][1,2,4]triazin-2-ylamino]-phenyl}-methanone]
IC50 (ALK; [1]): > 10000 nM
IC50 (JAK2; [2]): 100 to 1000 nM

SMILES: COc1c(Nc2ncc3ccc(-c4ccccc4N(C)S(C)(=O)=O)n3n2)cccc1C1CCN(C)CC1 [Example 776, N-(2-{2-[2-Methoxy-3-(1-methyl-piperidin-4-yl)-phenylamino]-pyrrolo [2,1-f][1,2,4]triazin-7-yl}-phenyl)-N-methyl-methanesulfonamide]
IC50 (ALK; [1]): < 100 nM
IC50 (JAK2; [2]): < 100 nM

SMILES: COc1ccccc1-c1ccc2cnc(C(N)=O)nn12 [Example 1495, 7-(2-Methoxy-phenyl)-pyrrolo[2,1-f][1,2,4]triazine-2-carboxylic acid amide]
IC50 (ALK; ALK Kinase Inhibition): > 10000 nM
IC50 (JAK2; JAK2 Kinase Inhibition): > 10000 nM

SMILES: COc1ccccc1-c1ccc2cnc(Nc3ccc4c(c3)C(NC(=O)OC(C)(C)C)C(O)C4)nn12 (stereo not shown) [Example 673, {2-Hydroxy-6-[7-(2-methoxy-phenyl)-pyrrolo[2,1-f][1,2,4]triazin-2-ylamino]-indan-1-yl}-carbamic acid tert-butyl ester]
IC50 (ALK; [1]): 100 to 1000 nM
IC50 (JAK2; [2]): < 100 nM

SMILES: COc1cc(CN2CCN(C(=O)CNC(=O)OC(C)(C)C)CC2)ccc1Nc1ncc2ccc(-c3ccccc3OC)n2n1 [Example 1242, [2-(4-{3-Methoxy-4-[7-(2-methoxy-phenyl)-pyrrolo[2,1-f][1,2,4]triazin-2-ylamino]-benzyl}-piperazin-1-yl)-2-oxo-ethyl]-carbamic acid tert-butyl ester]
IC50 (ALK; [1]): 100 to 1000 nM
IC50 (JAK2; [2]): 100 to 1000 nM

Results, then the compound that gave them:

IC50 (ALK; ALK Kinase Inhibition): 100 to 1000 nM
IC50 (JAK2; JAK2 Kinase Inhibition): < 100 nM
SMILES: c1ccc(Sc2ccc3cnc(Nc4ccc(N5CCOCC5)cc4)nn23)cc1 [Example 97, (4-Morpholin-4-yl-phenyl)-(7-phenylsulfanyl-pyrrolo[2,1-f][1,2,4]triazin-2-yl)-amine]

IC50 (ALK; [1]): 100 to 1000 nM
IC50 (JAK2; [2]): < 100 nM
SMILES: CN1CCN(c2ccc(Nc3ncc4cc(-c5cccc(CCC#N)c5)cn4n3)cc2)CC1 [Example 1161, 3-(3-{2-[4-(4-Methyl-piperazin-1-yl)-phenylamino]-pyrrolo[2,1-f][1,2,4]triazin-6-yl}-phenyl)-propionitrile]

IC50 (ALK; [1]): > 10000 nM
IC50 (JAK2; [2]): < 100 nM
SMILES: COc1ccc(-c2ccc3cnc(Nc4ccc5c(c4)N(S(C)(=O)=O)CCC5)nn23)cn1 [Example 1061, (1-Methanesulfonyl-1,2,3,4-tetrahydro-quinolin-7-yl)-[7-(6-methoxy-pyridin-3-yl)-pyrrolo[2,1-f][1,2,4]triazin-2-yl]-amine]

IC50 (ALK; [1]): 100 to 1000 nM
IC50 (JAK2; [2]): < 100 nM
SMILES: CN1CCN(c2ccc(Nc3ncc4ccc(-c5cccc(CN(C)S(C)(=O)=O)c5)n4n3)cc2)CC1 [Example 1048, N-Methyl-N-(3-{2-[4-(4-methyl-piperazin-1-yl)-phenylamino]-pyrrolo[2,1-f][1,2,4]triazin-7-yl}-benzyl)-methanesulfonamide]

IC50 (ALK; ALK Kinase Inhibition): 100 to 1000 nM
IC50 (JAK2; JAK2 Kinase Inhibition): < 100 nM
SMILES: CN1CCN(c2ccc(Nc3ncc4cc5ccccc5n4n3)cc2)CC1 [Example 263, [4-(4-Methyl-piperazin-1-yl)-phenyl]-[1,2,4]triazino[1,6-a]indol-2-yl-amine]

IC50 (ALK; ALK Kinase Inhibition): > 10000 nM
IC50 (JAK2; JAK2 Kinase Inhibition): < 100 nM
SMILES: O=S(=O)(c1ccc(-c2ccc3cnc(Nc4ccc(N5CCOCC5)cc4)nn23)cc1)N1CCCC1 [Example 63, (4-Morpholin-4-yl-phenyl)-{7-[4-(pyrrolidine-1-sulfonyl)-phenyl]-pyrrolo[2,1-f][1,2,4]triazin-2-yl}-amine]

IC50 (ALK; ALK Kinase Inhibition): < 100 nM
IC50 (JAK2; JAK2 Kinase Inhibition): < 100 nM
SMILES: CC(=O)N1CCOc2ccc(Nc3ncc4ccc(-c5cccc(S(=O)(=O)NC(C)(C)C)c5)n4n3)cc21 [Example 1373, 3-[2-(4-Acetyl-3,4-dihydro-2H-benzo[1,4]oxazin-6-ylamino)-pyrrolo[2,1-f][1,2,4]triazin-7-yl]-N-tert-butyl-benzenesulfonamide]

IC50 (ALK; ALK Kinase Inhibition): < 100 nM
IC50 (JAK2; JAK2 Kinase Inhibition): < 100 nM
SMILES: CN(c1ccccc1-c1ccc2cnc(Nc3ccc(N4CCC(N5CCOCC5)CC4)cc3)nn12)S(C)(=O)=O [Example 1456, N-Methyl-N-(2-{2-[4-(4-morpholin-4-yl-piperidin-1-yl)-phenylamino]-pyrrolo[2,1-f][1,2,4]triazin-7-yl}-phenyl)-methanesulfonamide]

IC50 (ALK; ALK Kinase Inhibition): < 100 nM
IC50 (JAK2; JAK2 Kinase Inhibition): < 100 nM
SMILES: CCCS(=O)(=O)Nc1cccc(-c2ccc3cnc(Nc4ccc(N5CCN(C)CC5)cc4)nn23)c1 [Example 417, Propane-1-sulfonic acid (3-{2-[4-(4-methyl-piperazin-1-yl)-phenylamino]-pyrrolo[2,1-f][1,2,4]triazin-7-yl}-phenyl)-amide]

IC50 (ALK; ALK Kinase Inhibition): > 10000 nM
IC50 (JAK2; JAK2 Kinase Inhibition): < 100 nM
SMILES: Fc1cc(Nc2ncc3ccc(-c4cccc(Cl)c4)n3n2)ccc1N1CCOCC1 [Example 187, [7-(3-Chloro-phenyl)-pyrrolo[2,1-f][1,2,4]triazin-2-yl]-(3-fluoro-4-morpholin-4-yl-phenyl)-amine]

IC50 (ALK; ALK Kinase Inhibition): < 100 nM
IC50 (JAK2; JAK2 Kinase Inhibition): < 100 nM
SMILES: CN1CCN(CC2CCN(c3ccc(Nc4ncc5ccc(-c6ccccc6N(C)S(C)(=O)=O)n5n4)cc3)CC2)CC1 [Example 450, N-Methyl-N-[2-(2-{4-[4-(4-methyl-piperazin-1-ylmethyl)-piperidin-1-yl]-phenylamino}-pyrrolo[2,1-f][1,2,4]triazin-7-yl)-phenyl]-methanesulfonamide]

IC50 (ALK; [1]): 1000 to 10000 nM
IC50 (JAK2; [2]): < 100 nM
SMILES: CS(=O)(=O)c1cccc(-c2ccc3cnc(Nc4ccc(Cl)c(OC[C@H]5CCCN5)c4)nn23)c1 [Example 1021, [4-Chloro-3-((R)-1-pyrrolidin-2-ylmethoxy)-phenyl]-[7-(3-methanesulfonyl-phenyl)-pyrrolo[2,1-f][1,2,4]triazin-2-yl]-amine]
